Results published in patent US20180200257A1, “METHODS FOR THE TREATMENT OF INFLAMMATORY DISORDERS” (Galapagos NV, priority 2015, published 2018).

System: subjects with moderately to severely active RA who have an inadequate response to methotrexate (MTX)
Test: Study 1 (add-on to MTX) - ACR responses (ACR20/50/70)
Type: in vivo, human
Description: The terms “ACR20”, “ACR50” and “ACR70” as used herein are scores which indicate how much a patient's rheumatoid arthritis has improved according to criteria set out by the American College of Rheumatology (ACR). The ACR score represents a percentage. An ACR20 score means that a person's RA has improved by 20%, an ACR50 score means it has improved by 50%, and an ACR70 score means it has improved by 70%. Specifically, to qualify for an ACR20 score, a person with RA must have at least 20% fewer tender joints and at least 20% fewer swollen joints. In addition the patient must show a 20% improvement in at least three of the following five areas: the person's overall (global) assessment of his or her own RA, the physician's global assessment of the person's RA, the person's assessment of his or her own pain, the person's assessment of his or her own physical functioning, and the results of an erythrocyte sedimentation rate or C-reactive protein (CRP) blood test (both of which test for inflammation). ACR50 and ACR70 scores use the same criteria but require 50% and 70% improvement, respectively, (Felson et al., 1993). In the data presented herein the CRP blood test is used.
Double-blind, placebo-controlled add on study in subjects with moderately to severely active RA who have an inadequate response to methotrexate (MTX) (oral or parenteral).
595 subjects randomized to one of 6 dose regimens of Compound 1 (dosed as [Compound 1:HCl:3H2O]) (3 dose levels administered either once or twice daily) or placebo on top of each subject's stable dose of MTX.
Compound 1 (dosed as [Compound 1:HCl:3H2O]) is dosed for twelve weeks once daily (q.d.) (50 mg, 100 mg or 200 mg) or twice daily (b.i.d.) (25 mg, 50 mg or 100 mg); or placebo.
At Week 12, the subjects on placebo who have not achieved 20% improvement in swollen joint count (SJC66) and tender joint count (TJC68) are re-randomized automatically to receive Compound 1 (dosed as a [Compound 1:HCl:3H2O]) either at 100 mg q.d. or 50 mg b.i.d. doses in a blinded fashion; subjects on 50 mg q.d. who have not achieved 20% improvement in SJC66 and TJC68 will be assigned to 100 mg q.d. and subjects on 25 mg b.i.d. that have not achieved a 20% improvement in SJC66 and TJC68 will be assigned to 50 mg b.i.d. Subjects who switch treatment at week 12 are handled as if they discontinued at week 12 for the purpose of statistical analysis, whereas subjects in the other groups will maintain their randomized treatment until Week 24.
The American College of Rheumatology (ACR) composite score, which evaluates clinical improvement relative to an initial assessment, is a commonly accepted efficacy end point for clinical trials in patients with rheumatoid arthritis. The ACR score correspond to a percentage improvement in pre-set parameters, and therefore measures the evolution of the disease in a patient. For example, ACR20 denotes at least 20% improvement in tender and swollen joint counts and in three of the following end points: global assessment by the patient, global assessment by the doctor, C reactive protein (CRP), patient's pain Visual Analogue Scale and Health Assessment Questionnaire Score. The number of swollen joints, ESR and CRP correlate with radiographic progression of joint damage, whereas tender joint counts, as well as global assessments by doctors and patients, and patients' reports of pain, are sensitive to change in clinical outcomes. Physical function, as assessed by the Health Assessment Questionnaire Score, is a potent predictor of the risk of disability in rheumatoid arthritis (Felson and American College of Rheumatology Committee to Reevaluate Improvement Criteria, 2007; Felson et al., 1993).
In particular, the list of parameters used to assess ACR score can be found in the Table XCVI below and the results of the ACR responses at week 12 via either NRI or LOCF are shown in the tables below. The Hommel-corrected p-value for the pairwise comparisons of each group with placebo is shown. […]

[1] = 2 × 25 mg b.i.d., week 2, 12 weeks results
[2] = 2 × 25 mg b.i.d., week 2, 24 weeks results
[3] = 2 × 25 mg b.i.d., week 4, 12 weeks results
[4] = 2 × 25 mg b.i.d., week 4, 24 weeks results
[5] = 2 × 25 mg b.i.d., week 8, 12 weeks results
[6] = 2 × 25 mg b.i.d., week 8, 24 weeks results
[7] = 2 × 25 mg b.i.d., week 12, 12 weeks results
[8] = 2 × 25 mg b.i.d., week 12, 24 weeks results
[9] = 2 × 25 mg b.i.d., week 16, 24 weeks results
[10] = 2 × 25 mg b.i.d., week 20, 24 weeks results
[11] = 2 × 25 mg b.i.d., week 24, 24 weeks results
[12] = 2 × 25 mg b.i.d., at week 1, 12 weeks results
[13] = 2 × 25 mg b.i.d., at week 1, 24 weeks results
[14] = 2 × 50 mg b.i.d., week 2, 12 weeks results
[15] = 2 × 50 mg b.i.d., week 2, 24 weeks results
[16] = 2 × 50 mg b.i.d., week 4, 12 weeks results
[17] = 2 × 50 mg b.i.d., week 4, 24 weeks results
[18] = 2 × 50 mg b.i.d., week 8, 12 weeks results
[19] = 2 × 50 mg b.i.d., week 8, 24 weeks results

O=C(Nc1nc2cccc(-c3ccc(CN4CCS(=O)(=O)CC4)cc3)n2n1)C1CC1 [Compound 1, cyclopropanecarboxylic acid {5-[4-(1,1-dioxo-thiomorpholin-4-ylmethyl)-phenyl]-[1,2,4]triazolo[1,5-a]pyridin-2-yl}-amide]
ACR70 (NRI) (200 mg q.d., week 8, 12 weeks results): 18.6% | ACR20 (LOCF) [1]: 27.9% | ACR20 (NRI) [1]: 29.1% | ACR50 (LOCF) [1]: 7.0% | ACR50 (NRI) [1]: 7.0% | ACR70 (LOCF) [1]: 2.3% | ACR70 (NRI) [1]: 2.3% | ACR20 (LOCF) [2]: 29.1% | ACR20 (NRI) [2]: 29.1% | ACR50 (LOCF) [2]: 7.0% | ACR50 (NRI) [2]: 7.0% | ACR70 (LOCF) [2]: 2.3% | ACR70 (NRI) [2]: 2.3% | ACR20 (LOCF) [3]: 44.2% | ACR20 (NRI) [3]: 45.3% | ACR50 (LOCF) [3]: 16.3% | ACR50 (NRI) [3]: 15.1% | ACR70 (LOCF) [3]: 5.8% | ACR70 (NRI) [3]: 5.8% | ACR20 (LOCF) [4]: 46.5% | ACR20 (NRI) [4]: 45.3% | ACR50 (LOCF) [4]: 16.3% | ACR50 (NRI) [4]: 15.1% | ACR70 (LOCF) [4]: 5.8% | ACR70 (NRI) [4]: 5.8% | ACR20 (LOCF) [5]: 58.1% | ACR20 (NRI) [5]: 58.1% | ACR50 (LOCF) [5]: 25.6% | ACR50 (NRI) [5]: 25.6% | ACR70 (LOCF) [5]: 8.1% | ACR70 (NRI) [5]: 9.3% | ACR20 (LOCF) [6]: 59.3% | ACR20 (NRI) [6]: 58.1% | ACR50 (LOCF) [6]: 25.6% | ACR50 (NRI) [6]: 25.6% | ACR70 (LOCF) [6]: 9.3% | ACR70 (NRI) [6]: 9.3% | ACR20 (LOCF) [7]: 58.1% | ACR20 (NRI) [7]: 57.0% | ACR50 (LOCF) [7]: 29.1% | ACR50 (NRI) [7]: 27.9% | ACR70 (LOCF) [7]: 14.0% | ACR70 (NRI) [7]: 14.0% | ACR20 (LOCF) [8]: 59.3% | ACR20 (NRI) [8]: 57.0% | ACR50 (LOCF) [8]: 29.1% | ACR50 (NRI) [8]: 27.9% | ACR70 (LOCF) [8]: 14.0% | ACR70 (NRI) [8]: 14.0% | ACR20 (LOCF) [9]: 55.8% | ACR20 (NRI) [9]: 52.3% | ACR50 (LOCF) [9]: 31.4% | ACR70 (LOCF) [9]: 10.5% | ACR20 (LOCF) [10]: 58.1% | ACR20 (NRI) [10]: 52.3% | ACR50 (LOCF) [10]: 41.9% | ACR70 (LOCF) [10]: 11.6% | ACR20 (LOCF) [11]: 62.8% | ACR20 (NRI) [11]: 55.8% | ACR50 (LOCF) [11]: 38.4% | ACR70 (LOCF) [11]: 22.1% | ACR20 (LOCF) [12]: 17.4% | ACR20 (NRI) [12]: 17.4% | ACR50 (LOCF) [12]: 2.3% | ACR50 (NRI) [12]: 3.5% | ACR70 (LOCF) [12]: 1.2% | ACR70 (NRI) [12]: 1.2% | ACR20 (LOCF) [13]: 17.4% | ACR20 (NRI) [13]: 17.4% | ACR50 (LOCF) [13]: 3.5% | ACR50 (NRI) [13]: 3.5% | ACR70 (LOCF) [13]: 2.4% | ACR70 (NRI) [13]: 1.2% | ACR20 (LOCF) [14]: 40.0% | ACR20 (NRI) [14]: 41.2% | ACR50 (LOCF) [14]: 11.8% | ACR50 (NRI) [14]: 11.8% | ACR70 (LOCF) [14]: 5.9% | ACR70 (NRI) [14]: 5.9% | ACR20 (LOCF) [15]: 41.2% | ACR20 (NRI) [15]: 41.2% | ACR50 (LOCF) [15]: 11.8% | ACR50 (NRI) [15]: 11.8% | ACR70 (LOCF) [15]: 5.9% | ACR70 (NRI) [15]: 5.9% | ACR20 (LOCF) [16]: 45.9% | ACR20 (NRI) [16]: 44.7% | ACR50 (LOCF) [16]: 20.0% | ACR50 (NRI) [16]: 17.6% | ACR70 (LOCF) [16]: 9.4% | ACR70 (NRI) [16]: 9.4% | ACR20 (LOCF) [17]: 47.1% | ACR20 (NRI) [17]: 45.3% | ACR50 (LOCF) [17]: 20.0% | ACR50 (NRI) [17]: 17.6% | ACR70 (LOCF) [17]: 9.4% | ACR70 (NRI) [17]: 9.4% | ACR20 (LOCF) [18]: 55.3% | ACR20 (NRI) [18]: 54.1% | ACR50 (LOCF) [18]: 32.9% | ACR50 (NRI) [18]: 32.9% | ACR70 (LOCF) [18]: 14.1% | ACR70 (NRI) [18]: 14.1% | ACR20 (LOCF) [19]: 55.3% | ACR20 (NRI) [19]: 54.1% | ACR50 (LOCF) [19]: 32.9% | ACR50 (NRI) [19]: 32.9% | ACR70 (LOCF) [19]: 14.1%
